Earlier results on 1 compound are cited in patent US12239660B2, “Therapeutic composition and methods” (Viscera Labs, Inc., priority 2018, dated 2025).

The conditions of this data set: in vivo, po.

On to `O=C(O)c1cc(/N=N/c2ccc(S(=O)(=O)Nc3ccccn3)cc2)ccc1O` [sulfasalazin], for which the “drug released in the small intestine” value was 12%.
